Where a name gives a salt, the structure may show the parent alone. Bridge positions count the residues as written; N and C are the ends. Square brackets hold non-standard residues; d marks the D form. Peptide text beside a SMILES is read from it. * marks the point of attachment. Ileψ(thiazoline)Cys = CC[C@H](C)[C@H](N)C1=N[C@H](C(=O)*)CS1; Sta = CC(C)C[C@H](N)[C@@H](O)CC(=O)O; dOrn = NCCC[C@@H](N)C(=O)O; Isovaleryl = CC(C)CC(=O)*
These molecules were tested on ATGL-KO iPSCs (assay: High throughput iPSC chemical screening, Oil Red O (ORO) lipid accumulation). Conditions: not given.
Type: cell-based, mouse
For Z-score in this document: test concentration or dose not given here.

| Molecule | Z-score |
| --- | --- |
| C[C@]12CC[C@H](O)C[C@@H]1CC[C@@H]1[C@@H]2CC[C@]2(C)C(=O)CC[C@@H]12 [Epiandrosterone] | −0.835 |
| CC(=C(CCO)SSCC1CCCO1)N(C=O)Cc1cnc(C)nc1N (stereo in doubt) [Fursultiamine Hydrochloride] | −0.696 |

Same assay, conditions: glycolytic switch compounds

| Molecule | Rank in normalized ORO score from screen |
| --- | --- |
| OC(CCN1CCCCC1)(c1ccccc1)C1CC2C=CC1C2 (stereo not shown) [Biperiden hydrochloride] | 135 |

Same assay, conditions: normalized ORO level vs DMSO-treated cells; compound present during 7 days differentiation, 96-well; negative = decrease in lipid accumulation

| Molecule | Z-score |
| --- | --- |
| CN1CCN(CC(=O)N2c3ccccc3C(=O)Nc3cccnc32)CC1 [Pirenzepine dihydrochloride] | −1.096 |
| O=C(O)c1cccnc1Nc1cccc(C(F)(F)F)c1 [Niflumic acid] | −0.6436 |
| C[N+]1(C)CCCC(OC(=O)C(O)(c2ccccc2)c2ccccc2)C1 (stereo not shown) [Mepenzolate bromide] | −0.115 |
| Guanadrel sulfate | −0.4661 |
| CN1CCC2(C)c3cc(O)ccc3N(C)C12.O=C(O)/C=C/C(=O)O (single isomer, unassigned; (-)) [(−)-Eseroline fumarate salt] | −0.478 |
| C[C@H]1c2cccc(O)c2C(=O)C2=C(O)[C@]3(O)C(=O)C(C(N)=O)=C(O)[C@@H](N(C)C)[C@@H]3[C@@H](O)[C@@H]21 [Doxycycline hydrochloride] | 2.356 |
| CO/N=C(\C(=O)N[C@@H]1C(=O)N2C(C(=O)O)=C(C[N+]3(C)CCCC3)CS[C@H]12)c1csc(N)n1 [Cefepime hydrochloride] | 1.172 |
| Cc1ncc(CO)c(CO)c1O.Cl [Pyridoxine hydrochloride] | 1.366 |
| CCC1NC(=O)c2cc(S(N)(=O)=O)c(Cl)cc2N1 (stereo not shown) [Quinethazone] | −0.4993 |
| CN1[C@@H]2CC[C@H]1C[C@@H](OC(=O)C(CO)c1ccccc1)C2 (stereo partly shown) [Atropine sulfate monohydrate] | 1.183 |
| COc1ccc(-c2ccc(=N)n(CCCC(=O)O)n2)cc1 [Gabazine] | −0.1416 |
| COc1ccc2c(c1OC)CN1CCc3cc4c(cc3C1C2)OCO4 (stereo not shown) [(d,l)-Tetrahydroberberine] | 3.2577 |
| O=C(OCC(O)CO)c1ccccc1Nc1ccnc2cc(Cl)ccc12 (stereo not shown) [Glafenine hydrochloride] | −0.4014 |
| CCCc1cc(=O)[nH]c(=S)[nH]1 [Propylthiouracil] | −0.0857 |
| Nc1ccc(S(=O)(=O)Nc2ccc(Cl)nn2)cc1 [Sulfachloropyridazine] | 1.134 |
| CCN1CCC[C@H]1CNC(=O)c1c(OC)ccc(Br)c1OC [Remoxipride Hydrochloride] | −0.4559 |
| CC=CC(=O)N(CC)c1ccccc1C [Crotamiton] | 2.886 |
| OC(CCN1CCCCC1)(c1ccccc1)C1CC2C=CC1C2 (stereo not shown) [Biperiden hydrochloride] | −1.1752 |
| C[C@H]1CC[C@]2(NC1)O[C@H]1C[C@H]3[C@@H]4CC[C@H]5C[C@@H](O[C@@H]6O[C@H](CO)[C@H](O[C@@H]7O[C@H](CO)[C@@H](O)[C@H](O[C@@H]8OC[C@@H](O)[C@H](O)[C@H]8O)[C@H]7O[C@@H]7O[C@H](CO)[C@@H](O)[C@H](O)[C@H]7O)[C@H](O)[C@H]6O)CC[C@]5(C)[C@H]4CC[C@]3(C)[C@H]1[C@@H]2C [Tomatine, reference compound] | −2.0901 |
| CC(C)(C)NC[C@H](O)COc1ccccc1C1CCCC1 [Penbutolol sulfate] | −0.627 |
| (S)-(−)-Atenolol | 0.7787 |
| CC(=O)OCC(=O)[C@@]12OC(C)(C)O[C@@H]1C[C@H]1[C@@H]3C[C@H](F)C4=CC(=O)C=C[C@]4(C)[C@@]3(F)[C@@H](O)C[C@@]12C [Fluocinonide] | 0.3846 |
| O=C(NCC1CCCCN1)c1cc(OCC(F)(F)F)ccc1OCC(F)(F)F (stereo not shown) [Flecainide acetate] | −0.9948 |

| Molecule | Z-score |
| --- | --- |
| O=C(Nc1ccc([N+](=O)[O-])cc1Cl)c1cc(Cl)ccc1O [Niclosamide] | 25.4633 |
| O.O=C1C(O)=C(O)C(=O)C(O)=C1O [Tetrahydroxy-1,4-quinone monohydrate] | −1.5885 |
| CCCCc1ccc2[nH]c(NC(=O)OC)nc2c1 [Parbendazole] | 39.1106 |
| C[C@@H]1C[C@H]2[C@@H]3CCC4=CC(=O)C=C[C@]4(C)[C@@]3(Cl)[C@@H](O)C[C@]2(C)[C@@]1(OC(=O)c1ccco1)C(=O)CCl [Mometasone furoate] | −0.7613 |
| COc1ccc2c(c1)[nH]c1c(C)nccc12.Cl [Harmine hydrochloride] | 0.3085 |
| CC(C)NC[C@@H](O)c1ccc(O)c(O)c1.O=C(O)C(O)C(O)C(=O)O [(+)-Isoproterenol (+)-bitartrate salt] | −0.728 |
| C/C(=C(\CCOP(=O)(O)O)SC(=O)c1ccccc1)N(C=O)Cc1cnc(C)nc1N [Benfotiamine] | −0.7979 |
| CN(C)[C@@H]1C(O)=C(C(=O)NCN2CCCC2)C(=O)[C@@]2(O)C(O)=C3C(=O)c4c(O)cccc4[C@@](C)(O)[C@H]3C[C@@H]12 [Rolitetracycline] | −0.3523 |
| O=C(CCCN1CCN(c2ccccn2)CC1)c1ccc(F)cc1 [Azaperone] | 1.543 |
| CC(C)(C)NC[C@@H](O)COc1cccc2c1CCCC2=O.Cl [(+)-Levobunolol hydrochloride] | −0.1813 |
| C[C@H](O)C(=O)Nc1c(I)c(C(=O)NC(CO)CO)c(I)c(C(=O)NC(CO)CO)c1I [Iopamidol] | 1.108 |
| O=c1ccc2cc(O)c(O)cc2o1 [Esculetin] | −0.9295 |
| CCCCC1(COC(=O)CCC(=O)O)C(=O)N(c2ccccc2)N(c2ccccc2)C1=O [Suxibuzone] | −1.3282 |
| CC1(C)S[C@@H]2[C@H](NC(=O)[C@H](C(=O)O)c3ccsc3)C(=O)N2[C@H]1C(=O)O [Ticarcillin sodium] | −0.1446 |
| CC1(C)S[C@@H]2[C@H](NC(=O)[C@H](N)c3ccccc3)C(=O)N2[C@H]1C(=O)OC1OC(=O)c2ccccc21 (stereo partly shown) [Talampicillin hydrochloride] | −0.9508 |
| CCOC(=O)[N-]c1cn(N2CCOCC2)n[o+]1 [Molsidomine] | 1.761 |
| CC1=C2[C@H]3OC(=O)[C@@H](C)[C@@H]3CC[C@@]2(C)C=CC1=O [alpha-Santonin] | −0.8908 |
| CC1(C)O[C@@H]2C[C@H]3[C@@H]4C[C@H](F)C5=CC(=O)C=C[C@]5(C)[C@H]4[C@@H](O)C[C@]3(C)[C@]2(C(=O)CO)O1 [Flunisolide] | 0.2241 |
| CC(=O)N[C@@H](CC(C)C)C(=O)O [N-Acetyl-L-leucine] | −1.2512 |
| Cc1c(NC(=O)c2cccnc2)c(=O)n(-c2ccccc2)n1C [Nifenazone] | 0.1131 |
| CC(=O)[C@H]1CC[C@H]2[C@@H]3C[C@H](C)C4=CC(=O)CC[C@]4(C)[C@H]3[C@@H](O)C[C@]12C [Medrysone] | −0.1611 |
| C[C@H]1C[C@@H]2[C@H]([C@@H](O)C[C@@]3(C)[C@H]2CC[C@]3(O)C(=O)CO)[C@@]2(C)C=CC(=O)C=C12 [Methylprednisolone, 6-alpha] | −1.1745 |
| OCCN1CCN(CCCN2c3ccccc3Sc3ccc(C(F)(F)F)cc32)CC1 [Fluphenazine dihydrochloride] | 0.4317 |

| Molecule | Z-score |
| --- | --- |
| CCCCC(CC)CNC(=N)NC(=N)NCCCCCCNC(=N)NC(=N)NCC(CC)CCCC (stereo not shown) [Alexidine dihydrochloride] | 43.2376 |
| COc1ccc(C(Cl)=C(c2ccc(OC)cc2)c2ccc(OC)cc2)cc1 [Chlorotrianisene] | −0.6534 |
| O=C(O)c1ccccc1OP(=O)(O)O [Fosfosal] | −1.2351 |
| CC(C)/N=c1\cc2n(-c3ccc(Cl)cc3)c3ccccc3nc-2cc1Nc1ccc(Cl)cc1 [Clofazimine] | −0.5584 |
| CC(C)CC(=O)N[C@H](C(=O)N[C@H](C(=O)N[C@@H](CC(C)C)[C@@H](O)CC(=O)N[C@@H](C)C(=O)N[C@@H](CC(C)C)[C@@H](O)CC(=O)O)C(C)C)C(C)C [Pepstatin A] (Isovaleryl-VV[Sta]A[Sta]-OH) | 1.261 |
| Cc1onc(-c2c(Cl)cccc2Cl)c1C(=O)N[C@@H]1C(=O)N2[C@@H]1SC(C)(C)[C@@H]2C(=O)O [Dicloxacillin sodium salt] | −0.1893 |
| CCN(CC)C(=O)N[C@H]1C[C@@H]2c3cccc4[nH]cc(c34)C[C@H]2N(C)C1.O=C(O)/C=C\C(=O)O [S(−)-terguride hydrogen maleate] | −1.0498 |
| CCOC(=O)n1ccn(C)c1=S [Carbimazole] | −0.836 |
| COc1cc2nc(N3CCN(C(=O)C4COc5ccccc5O4)CC3)nc(N)c2cc1OC (stereo not shown) [Doxazosin mesylate] | −1.0121 |
| C[C@@H]1O[C@@H](O[C@@H]2C=C3CC[C@@H]4[C@H](CC[C@]5(C)[C@@H](c6ccc(=O)oc6)CC[C@]45O)[C@@]3(C)CC2)[C@H](O)[C@H](O)[C@H]1O [Proscillaridin A] | −1.0698 |
| COc1ccc2c(c1)C(=O)N(CCc1ccc(S(=O)(=O)NC(=O)NC3CCCCC3)cc1)C(=O)C2(C)C [Gliquidone] | −0.9495 |
| COc1cc2ccc(=O)oc2cc1O [Scopoletin] | 0.6027 |
| Nc1ccc(S(=O)(=O)Nc2ncccn2)cc1 [Sulfadiazine] | 0.09783 |
| OC(c1ccccc1)(c1ccccc1)C1CCNCC1 [Azacyclonol] | −1.0159 |
| CCn1cc(C(=O)O)c(=O)c2cc(F)c(N3CCNC(C)C3)c(F)c21 (stereo not shown) [Lomefloxacin hydrochloride] | 0.00477 |
| CCCOc1ccccc1-c1nc2nn[nH]c2c(=O)[nH]1 [Zaprinast] | −0.4842 |
| Cc1cccc(Nc2ccncc2S(=O)(=O)NC(=O)NC(C)C)c1 [Torsemide] | 0.1541 |
| Cc1cccc(CN2CCN(C(c3ccccc3)c3ccc(Cl)cc3)CC2)c1 (stereo not shown) [Meclozine dihydrochloride] | 1.227 |
| COc1ccc([C@@H]2CC(=O)c3c(O)cc(O)cc3O2)cc1O [Hesperetin] | −1.3358 |
| CC[C@H](C)[C@H](N)C1=N[C@H](C(=O)N[C@@H](CC(C)C)C(=O)N[C@H](CCC(=O)O)C(=O)N[C@H](C(=O)N[C@H]2CCCCNC(=O)[C@H](CC(N)=O)NC(=O)[C@@H](CC(=O)O)NC(=O)[C@H](Cc3cnc[nH]3)NC(=O)[C@@H](Cc3ccccc3)NC(=O)[C@H]([C@@H](C)CC)NC(=O)[C@@H](CCCN)NC2=O)[C@@H](C)CC)CS1 [Bacitracin] ({Ileψ(thiazoline)Cys}-L[dE]IK[dOrn]I[dF]H[dD]N; lactam 4-C) | −1.0707 |
| Nc1ccc(S(=O)(=O)Nc2ccccn2)cc1 [Sulfapyridine] | 0.5256 |

Source: patent US9393221B2, “Methods and compounds for reducing intracellular lipid storage” (THE GENERAL HOSPITAL CORPORATION, priority 2011, dated 2016)
